Experimental data reported in patent publication US12612380B2, “Non-lysosomal glucosylceramidase inhibitors and uses thereof” (ALECTOS THERAPEUTICS INC., priority 2019, dated 2026).
Read-outs that look alike come from different tables or passages of the source.

Legend:
[1] = molecular target: T1, GBA2 (Homo sapiens, UniProt Q9HCG7); assay: Binding specificity (selectivity) for GBA2 over other enzymes; type: biochemical; conditions: compared to a suitable reference compound, e.g. NB-DNJ (miglustat) or AMP-DNM
T1 sequence (Q9HCG7 1-927): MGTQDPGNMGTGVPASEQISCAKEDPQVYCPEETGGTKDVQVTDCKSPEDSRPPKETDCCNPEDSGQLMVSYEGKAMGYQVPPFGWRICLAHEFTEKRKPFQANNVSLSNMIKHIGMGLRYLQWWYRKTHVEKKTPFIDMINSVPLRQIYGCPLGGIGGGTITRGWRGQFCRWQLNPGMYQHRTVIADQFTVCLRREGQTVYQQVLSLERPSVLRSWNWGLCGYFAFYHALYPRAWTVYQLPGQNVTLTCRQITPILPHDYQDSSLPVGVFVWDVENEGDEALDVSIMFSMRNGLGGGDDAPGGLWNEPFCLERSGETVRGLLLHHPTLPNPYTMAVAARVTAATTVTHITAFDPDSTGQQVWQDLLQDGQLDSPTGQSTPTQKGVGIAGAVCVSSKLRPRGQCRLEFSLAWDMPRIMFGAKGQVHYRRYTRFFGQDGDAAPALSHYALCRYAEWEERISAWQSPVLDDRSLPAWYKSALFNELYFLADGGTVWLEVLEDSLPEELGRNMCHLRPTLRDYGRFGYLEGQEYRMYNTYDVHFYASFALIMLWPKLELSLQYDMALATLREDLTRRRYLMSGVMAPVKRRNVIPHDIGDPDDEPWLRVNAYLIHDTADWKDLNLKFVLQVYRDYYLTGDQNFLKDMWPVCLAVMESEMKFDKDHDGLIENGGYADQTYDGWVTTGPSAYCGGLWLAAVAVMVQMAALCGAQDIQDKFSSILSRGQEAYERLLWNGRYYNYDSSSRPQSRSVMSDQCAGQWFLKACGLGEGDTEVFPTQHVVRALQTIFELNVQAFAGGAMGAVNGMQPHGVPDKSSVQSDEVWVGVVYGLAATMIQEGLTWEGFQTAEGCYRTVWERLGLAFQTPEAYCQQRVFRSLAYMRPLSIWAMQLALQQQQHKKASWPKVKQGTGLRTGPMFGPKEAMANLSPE
Source text: In some embodiments, one or more of the compounds according to the invention may specifically bind a GBA2. In alternative embodiments, one or more of the compounds according to the invention may specifically bind the active site of a GBA2. […] In alternative embodiments, one or more of the compounds according to the invention may specifically bind the human non-lysosomal glucosylceramidase (GBA2) over the human lysosomal glucosylceramidase (GCase) and/or the human cytosolic glucosylceramidase (GBA3). In alternative embodiments, one or more of the compounds according to the invention may specifically bind the human non-lysosomal glucosylceramidase (GBA2) over the human glucosylceramide synthase (GCS). In alternative embodiments, one or more of the compounds according to the invention may specifically bind the human non-lysosomal glucosylceramidase (GBA2) over an intestinal alpha-glucosidase, where the intestinal alpha-glucosidase may be a sucrase-isomaltase or a maltase-glucoamylase.

[2] = molecular target: T1, GBA2; assay: Determination of IC50 values for inhibition of GBA2 in cell lysate; type: biochemical; parameters: host or cells: HEK293T (lentiviral transduction, puromycin selection); used as cellular homogenate
Method in brief: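 Fluorogenic 4-MU-β-glucoside (250 μM) turnover over 20 min at 37 °C, pH 5.5, measured after NaOH/glycine stop (ex 365, em 450 nm). Enzyme source: lysate (0.083 mg/mL) of lentivirally transduced GBA2-HEK293T, GCase blocked by 20 μM azaspiro-octanediol; compound preincubated 5 min; IC50 = 50% inhibition concentration.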

[3] = cellular homogenate of HEK293T cells overexpressing human GBA2, 250 μM 4-methylumbelliferone-β-D glucopyranoside, pH 5.5, 37° C., GCase inhibitor present, read-out: GBA2 IC50

binding specificity (IC50 or Ki of other molecule / GBA2) [1] | IC50 [2, 3] | SMILES | IC50 [2]
enhanced binding specificity | < 0.1 µM | C[C@@H]1[C@@H](O)[C@H](O)[C@@H](O)CN1C[C@H]1CC[C@@H](C(C)(C)C)CC1 [Example 9, (2R,3R,4R,5S)-1-(((1s,4S)-4-(tert-butyl)cyclohexyl)methyl)-2-methylpiperidine-3,4,5-triol] | 
enhanced binding specificity | < 0.1 µM | C[C@@H]1[C@@H](O)[C@H](O)[C@@H](O)CN1C[C@H]1CC[C@@H](C(F)(F)F)CC1 [Example 11, (2R,3R,4R,5S)-2-methyl-1-(((1s,4S)-4-(trifluoromethyl)cyclohexyl)methyl)piperidine-3,4,5-triol] | 
enhanced binding specificity | < 0.1 µM | C[C@@H]1[C@@H](O)[C@H](O)[C@@H](O)CN1C[C@H]1CC[C@@H](C(C)(C)F)CC1 [Example 13, (2R,3R,4R,5S)-1-(((1s,4S)-4-(2-fluoropropan-2-yl)cyclohexyl)methyl)-2-methylpiperidine-3,4,5-triol] | 
enhanced binding specificity | < 0.1 µM | C[C@@H]1[C@@H](O)[C@H](O)[C@@H](O)CN1C[C@H]1CC[C@@H](C2CC2)CC1 [Example 20, (2R,3R,4R,5S)-1-(((1s,4S)-4-cyclopropylcyclohexyl)methyl)-2-methylpiperidine-3,4,5-triol] | 
enhanced binding specificity | < 0.1 µM | C[C@@H]1[C@@H](O)[C@H](O)[C@@H](O)CN1CC1CCC2(CCC2)CC1 [Example 24, (2R,3R,4R,5S)-2-methyl-1-(spiro[3.5]nonan-7-ylmethyl)piperidine-3,4,5-triol] | 
enhanced binding specificity | < 0.1 µM | C[C@@H]1[C@@H](O)[C@H](O)[C@@H](O)CN1CCc1c(F)cc(C2CCOCC2)cc1F [Example 54, (2R,3R,4R,5S)-1-(2,6-difluoro-4-(tetrahydro-2H-pyran-4-yl)phenethyl)-2-methylpiperidine-3,4,5-triol] | 
enhanced binding specificity | < 0.1 µM | C[C@@H]1[C@@H](O)[C@H](O)[C@@H](O)CN1CCc1c(F)cc(N2CCCC2)cc1F [Example 56, (2R,3R,4R,5S)-1-(2,6-difluoro-4-(pyrrolidin-1-yl)phenethyl)-2-methylpiperidine-3,4,5-triol] | 
enhanced binding specificity | < 0.1 µM | C[C@@H]1[C@@H](O)[C@H](O)[C@@H](O)CN1CCc1c(F)cc(N2CCCCC2)cc1F [Example 57, (2R,3R,4R,5S)-1-(2,6-difluoro-4-(piperidin-1-yl)phenethyl)-2-methylpiperidine-3,4,5-triol] | 
enhanced binding specificity | < 0.1 µM | C[C@@H]1[C@@H](O)[C@H](O)[C@@H](O)CN1CCc1c(F)cc(N2CCOCC2)cc1F [Example 58, (2R,3R,4R,5S)-1-(2,6-difluoro-4-morpholinophenethyl)-2-methylpiperidine-3,4,5-triol] | 
 | < 0.1 µM | CC(C)(C)C1CCC(CN2C[C@H](O)[C@@H](O)[C@H](O)[C@H]2CF)CC1 (stereo partly drawn) [Example 146, (2S,3R,4R,5S)-1-((4-(tert-butyl)cyclohexyl)methyl)-2-(fluoromethyl)piperidine-3,4,5-triol] | 
 |  | O[C@H]1[C@H](O)[C@@H](O)CN(CCc2ccccc2)[C@@H]1CF [Example 148, (2S,3R,4R,5S)-2-(fluoromethyl)-1-phenethylpiperidine-3,4,5-triol] | 0.1 to 1 µM
 |  | O[C@H]1[C@H](O)[C@@H](O)CN(CCc2ccccc2F)[C@@H]1CF [Example 149, (2S,3R,4R,5S)-2-(fluoromethyl)-1-(2-fluorophenethyl)piperidine-3,4,5-triol] | 0.1 to 1 µM
 |  | CC(C)c1cc(F)c(CCN2C[C@H](O)[C@@H](O)[C@H](O)[C@H]2CF)c(F)c1 [Example 150, (2S,3R,4R,5S)-1-(2,6-difluoro-4-isopropylphenethyl)-2-(fluoromethyl)piperidine-3,4,5-triol] | < 0.1 µM
 |  | O[C@H]1[C@H](O)[C@@H](O)CN(CCc2ccc3c(c2)OCCO3)[C@@H]1CF [Example 153, (2S,3R,4R,5S)-1-(2-(2,3-dihydrobenzo[b][1,4]dioxin-6-yl)ethyl)-2-(fluoromethyl)piperidine-3,4,5-triol] | < 0.1 µM
 | < 0.1 µM | O[C@H]1[C@H](O)[C@@H](O)CN(CC2CCN(c3ccccc3)CC2)[C@@H]1CF [Example 154, (2S,3R,4R,5S)-2-(fluoromethyl)-1-((1-phenylpiperidin-4-yl)methyl)piperidine-3,4,5-triol] | 
 | < 0.1 µM | O[C@H]1[C@H](O)[C@@H](O)CN(CC2CCN(c3ccc(C(F)(F)F)cc3)CC2)[C@@H]1CF [Example 155, (2S,3R,4R,5S)-2-(fluoromethyl)-1-((1-(4-(trifluoromethyl)phenyl)piperidin-4-yl)methyl)piperidine-3,4,5-triol] | 
 | 1 to 25 µM | O[C@H]1[C@H](O)[C@@H](O)CN(CCc2ccccc2)[C@@H]1C(F)F [Example 156, (2S,3R,4R,5S)-2-(difluoromethyl)-1-phenethylpiperidine-3,4,5-triol] | 
 |  | C[C@H]1[C@@H](O)[C@H](O)[C@@H](O)CN1CCc1ccccc1F [Example 157, (2S,3R,4R,5S)-1-(2-fluorophenethyl)-2-methylpiperidine-3,4,5-triol] | 1 to 25 µM
 |  | CCCCOc1cc(F)c(CCN2C[C@H](O)[C@@H](O)[C@H](O)[C@@H]2C)c(F)c1 [Example 158, (2S,3R,4R,5S)-1-(4-butoxy-2,6-difluorophenethyl)-2-methylpiperidine-3,4,5-triol] | 0.1 to 1 µM
 |  | O[C@H]1[C@H](O)[C@H](CF)N(CCc2ccccc2F)C[C@@H]1O [Example 159, (2R,3R,4R,5S)-2-(fluoromethyl)-1-(2-fluorophenethyl)piperidine-3,4,5-triol] | 1 to 25 µM
 |  | CCCCOc1cc(F)c(CCN2C[C@H](O)[C@@H](O)[C@H](O)[C@@H]2CF)c(F)c1 [Example 160, (2R,3R,4R,5S)-1-(4-butoxy-2,6-difluorophenethyl)-2-(fluoromethyl)piperidine-3,4,5-triol] | 0.1 to 1 µM

SMILES | binding specificity (IC50 or Ki of other molecule / GBA2) [1] | IC50 [2, 3] | IC50 [2]
CC(C)c1cc(F)c(CCN2C[C@H](O)[C@@H](O)[C@H](O)[C@H]2C)c(F)c1 [Example 51, (2R,3R,4R,5S)-1-(2,6-difluoro-4-isopropylphenethyl)-2-methylpiperidine-3,4,5-triol] | enhanced binding specificity |  | < 0.1 µM
CC(C)c1ccc(F)c(CCN2C[C@H](O)[C@@H](O)[C@H](O)[C@H]2C)c1F [Example 52, (2R,3R,4R,5S)-1-(2,6-difluoro-3-isopropylphenethyl)-2-methylpiperidine-3,4,5-triol] | enhanced binding specificity |  | < 0.1 µM
C[C@@H]1[C@@H](O)[C@H](O)[C@@H](O)CN1CCc1c(F)cc(C2CC2)cc1F [Example 53, (2R,3R,4R,5S)-1-(4-cyclopropyl-2,6-difluorophenethyl)-2-methylpiperidine-3,4,5-triol] | enhanced binding specificity |  | < 0.1 µM
C[C@@H]1[C@@H](O)[C@H](O)[C@@H](O)CN1CCc1c(F)cc(C(F)(F)F)cc1F [Example 55, (2R,3R,4R,5S)-1-(2,6-difluoro-4-(trifluoromethyl)phenethyl)-2-methylpiperidine-3,4,5-triol] | enhanced binding specificity |  | 0.1 to 1 µM
